# Columns and labels:
# [1] = tested on: activated monocytes; details: cited from earlier work
# [2] = target: T1, IKKβ (Homo sapiens, UniProt O14920); test: Recombinant wild-type IKKβ (Sf9) kinase activity; format: biochemical; set-up: FLAG; made in house; host or cells: Sf9 (baculovirus)
# T1 sequence (O14920 1-756): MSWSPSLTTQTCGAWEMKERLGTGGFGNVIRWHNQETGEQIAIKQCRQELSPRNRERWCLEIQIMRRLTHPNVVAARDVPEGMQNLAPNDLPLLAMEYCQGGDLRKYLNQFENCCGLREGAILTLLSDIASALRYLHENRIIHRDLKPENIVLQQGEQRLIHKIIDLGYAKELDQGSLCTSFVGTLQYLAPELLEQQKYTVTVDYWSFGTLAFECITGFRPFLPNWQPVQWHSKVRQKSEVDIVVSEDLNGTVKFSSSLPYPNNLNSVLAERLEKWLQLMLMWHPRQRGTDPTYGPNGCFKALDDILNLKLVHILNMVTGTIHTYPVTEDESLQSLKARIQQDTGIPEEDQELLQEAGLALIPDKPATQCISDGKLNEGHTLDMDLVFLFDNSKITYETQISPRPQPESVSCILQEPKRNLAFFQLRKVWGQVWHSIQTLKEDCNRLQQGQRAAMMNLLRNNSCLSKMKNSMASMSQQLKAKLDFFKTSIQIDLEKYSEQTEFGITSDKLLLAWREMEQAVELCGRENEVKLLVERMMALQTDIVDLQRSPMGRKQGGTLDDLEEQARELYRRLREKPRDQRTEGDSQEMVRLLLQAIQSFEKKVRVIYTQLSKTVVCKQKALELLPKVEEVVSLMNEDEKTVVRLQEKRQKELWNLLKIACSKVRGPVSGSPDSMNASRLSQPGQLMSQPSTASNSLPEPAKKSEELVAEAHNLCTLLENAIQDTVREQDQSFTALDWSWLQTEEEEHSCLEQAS
# Procedure: In addition, recombinant IKKβ was expressed in Sf9 cells and purified as described (Zandi et al., supra). AA, PGs, LTB4, and T×B2 were added to washed imnmunoprecipitates of recombinant IKKβ in kinase buffer to a final volume of 500 μl. After 1.5 hours at 4° C., the immunoprecipitates were washed and the kinase activity determined. Western blot analysis was also performed as known in the art (See e.g., Rossi et al., supra).
# In other experiments, purified recombinant IKKβ immobilized on beads with 15dPGJ2 or diluent were preincubated and extensively rinsed with kinase buffer lacking the inhibitor.
# [3] = target: T2, IKKα (Homo sapiens, UniProt O14920+O15111); test: NIK-induced HA-tagged IKKα associated kinase activity in COS cells; format: cell-based; details: PGA1 added immediately after or 18 hours after transfection
# T2 construct: expressed in transfected cells; host or cells: COS
# Procedure: Cells used in the experiments described herein were cultured in either RPMI 1640 (Jurkat cells) or DMEM (HeLa and COS cells), supplemented with 10% FBS and antibiotics. Cells were stimulated with either 25 ng/ml TPA, 20 ng/ml recombinant TNFα, or 10 ng/ml interleukin 1β (Sigma). PGA1, 15dPGJ2, T×B2, LTB4, AA and other PGs (Cayman) dissolved in ethanol were used as well, as known in the art (See e.g., Rossi et al., 94:746-750 [1997]). Controls received equal amounts of ethanol. Transfections were performed using Lipofectamine Plus (GIBCO) for HeLa and COS cells and DEAE-dextran (Sigma) for Jurkat cells. Xpress-tagged NIK, Xpress-tagged MEKK1, HA-tagged IKKα, and HA-tagged IKKβ were also used (See e.g., Zandi et al., Science 281:1360-1363 [1998]; and Delhase et al., Science 284:309-313 [1999]). COX2 and cPLA2 expression vectors were obtained from Dr. L. Feng (See also, Hirose et al., J. Am. Soc. Nephrol., 9:408-416 [1998]). PGD synthase was cloned from HT29 colon carcinoma cell line cDNA by PCR and subcloned into a pCDNA3 vector. […]
# Cell lysates were incubated with anti-IKKα (Pharmingen), anti-HA (12CA5; Pharmingen), anti-JNK1 (333.8; Pharmingen), or anti-p38 (New England Biolabs) for 2 hours. […] Endogenous IKK, HA-tagged IKKα, endogenous JNK1, and p38 activities were determined with GST-1κBα(1-54), GST-c-Jun(1-79), and GST-ATF2 as substrates.
# T2 sequence (O15111 whole entry, one chain of several): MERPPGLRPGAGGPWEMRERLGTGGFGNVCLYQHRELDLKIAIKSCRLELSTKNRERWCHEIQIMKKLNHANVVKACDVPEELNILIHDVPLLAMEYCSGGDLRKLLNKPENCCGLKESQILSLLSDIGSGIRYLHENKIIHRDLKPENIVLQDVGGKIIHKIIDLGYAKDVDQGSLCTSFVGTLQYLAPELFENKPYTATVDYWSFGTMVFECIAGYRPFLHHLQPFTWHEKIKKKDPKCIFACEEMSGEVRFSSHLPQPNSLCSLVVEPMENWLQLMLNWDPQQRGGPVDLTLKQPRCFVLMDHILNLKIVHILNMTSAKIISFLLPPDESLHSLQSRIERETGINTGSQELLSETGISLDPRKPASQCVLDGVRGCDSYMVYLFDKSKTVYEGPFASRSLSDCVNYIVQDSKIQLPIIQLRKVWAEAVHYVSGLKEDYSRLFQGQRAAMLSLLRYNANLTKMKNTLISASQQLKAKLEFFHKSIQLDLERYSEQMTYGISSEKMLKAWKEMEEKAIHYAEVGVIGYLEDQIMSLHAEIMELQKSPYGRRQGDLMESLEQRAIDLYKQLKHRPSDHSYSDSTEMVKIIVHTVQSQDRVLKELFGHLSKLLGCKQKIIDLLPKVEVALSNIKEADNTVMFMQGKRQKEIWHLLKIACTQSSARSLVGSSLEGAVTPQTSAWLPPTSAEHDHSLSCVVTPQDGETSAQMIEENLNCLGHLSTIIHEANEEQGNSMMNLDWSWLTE
# T2 sequence (Q9Y6K9 whole entry partner, one chain of several): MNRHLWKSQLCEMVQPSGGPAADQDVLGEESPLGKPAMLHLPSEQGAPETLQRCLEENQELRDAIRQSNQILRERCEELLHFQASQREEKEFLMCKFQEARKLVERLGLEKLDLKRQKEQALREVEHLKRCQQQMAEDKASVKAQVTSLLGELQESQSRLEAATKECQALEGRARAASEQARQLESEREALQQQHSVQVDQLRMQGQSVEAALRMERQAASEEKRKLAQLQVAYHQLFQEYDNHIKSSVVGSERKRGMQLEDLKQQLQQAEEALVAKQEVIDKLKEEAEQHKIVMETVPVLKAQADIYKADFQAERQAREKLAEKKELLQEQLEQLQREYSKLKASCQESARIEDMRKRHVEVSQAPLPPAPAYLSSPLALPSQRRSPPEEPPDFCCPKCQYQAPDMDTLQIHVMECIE
Structure (SMILES),production of pro-inflammatory cytokines [1],effect on recombinant wild-type IKKβ ([2]; FIG. 6D),"inhibition after extensive washing (reversibility) ([2]; recombinant IKKβ on beads pre-incubated with inhibitor, rinsed with kinase buffer)",effect on NIK-induced IKK activity (HA-IKKα) [3]
"CCCCC/C=C/C=C1/C(=O)C=C[C@@H]1C/C=C\CCCC(=O)O [15dPGJ2, 15-deoxy-Δ^12-14-PGJ2]",inhibits,inhibitory,remained inhibited,
"CCCCC[C@H](O)/C=C/[C@H]1C=CC(=O)C1CCCCCCC(=O)O (stereo partly shown) [PGA1, prostaglandin A1]",,,,inhibited

# From patent publication US6649654B1, “Methods for identifying and using IKK inhibitors” (The Regents of the University of California, priority 1999, dated 2003)
